Experimental data as given in publication PMC6792352, “Limited Chemical Structural Diversity Found to Modulate Thyroid Hormone Receptor in the Tox21 Chemical Library” (Environmental Health Perspectives, 2019).
Where a name gives a salt, the structure may show the parent alone. Read-outs that look alike come from different tables or passages of the source.

Columns and labels:
[1] = tested on: GH3-TRE-Luc cell line; details: read-out: AC50 (uM) modified / 1000, viability, 1 nM T3 present, 24 h
[2] = in vitro; details: rat, gh3-tre-luc cells, AC50 (uM) modified / 1000

SMILES: Oc1ccc(/C=C/c2cc(O)cc(O)c2)cc1 [Resveratrol]
- CC50 ([1]; Tox21_110001=Tox21_303376): 36.1 µM
- CC50 at 24 h [2]: 35 µM

SMILES: O=c1n(CC2CO2)c(=O)n(CC2CO2)c(=O)n1CC1CO1 (stereo not shown) [Triglycidyl isocyanurate]
- CC50 ([1]; Tox21_110001=Tox21_111097): 26.2 µM
- CC50 ([1]; Tox21_110001=Tox21_300119): 33.9 µM
- CC50 at 24 h [2]: 27.2 µM

SMILES: c1ccc2sc(SSN3CCOCC3)nc2c1 [2-(Morpholin-4-yldithio)-1,3-benzothiazole]
- CC50 ([1]; Tox21_110001=Tox21_303278): 35 µM
- CC50 at 24 h [2]: 18.6 µM

SMILES: Nc1ccc(O)c(N)c1 [2,4-Diaminophenol dihydrochloride]
- CC50 ([1]; Tox21_110001=Tox21_303017): 45.5 µM
- CC50 at 24 h [2]: 41.5 µM

SMILES: OCCOCCN1CCN(C(c2ccccc2)c2ccc(Cl)cc2)CC1 (stereo not shown) [Hydroxyzine]
- CC50 ([1]; Tox21_110001=Tox21_302563): 16.6 µM
- CC50 at 24 h [2]: 18.1 µM

SMILES: CCCCC/C=C/C=C/C=O [(E,E)-2,4-Decadienal]
- CC50 ([1]; Tox21_110001=Tox21_303165): 70.3 µM
- CC50 at 24 h [2]: > 90 µM

SMILES: O=C(c1cc(O)c(O)c(O)c1)c1ccc(O)c(O)c1O [Exifone]
- CC50 ([1]; Tox21_110001=Tox21_303559): 62.8 µM
- CC50 at 24 h [2]: 43.6 µM

SMILES: CC(C)(c1cc(Br)c(O)c(Br)c1)c1cc(Br)c(O)c(Br)c1 [3,3',5,5'-Tetrabromobisphenol A]
- CC50 ([1]; Tox21_110001=Tox21_201981): 43.3 µM
- CC50 ([1]; Tox21_110001=Tox21_300561): 38.6 µM
- CC50 at 24 h [2]: 39.3 µM

SMILES: Cc1c(C)c2c(c(C)c1O)CCC(C)(COc1ccc(CC3SC(=O)NC3=O)cc1)O2 (stereo not shown) [Troglitazone]
- CC50 ([1]; Tox21_110001=Tox21_112119): 41.3 µM
- CC50 at 24 h [2]: 54.8 µM

SMILES: O=P(OC(CCl)CCl)(OC(CCl)CCl)OC(CCl)CCl [Tris(1,3-dichloro-2-propyl) phosphate]
- CC50 ([1]; Tox21_110001=Tox21_300194): 36.6 µM
- CC50 at 24 h [2]: 61.2 µM

SMILES: O=C1c2ccccc2C(=O)N1SC1CCCCC1 [N-(Cyclohexylthio)phthalimide]
- CC50 ([1]; Tox21_110001=Tox21_303596): 23.2 µM
- CC50 at 24 h [2]: 37 µM

SMILES: CC(C)(c1ccc(OCC2CO2)cc1)c1ccc(OCC2CO2)cc1 (stereo not shown) [Bisphenol A diglycidyl ether]
- CC50 ([1]; Tox21_110001=Tox21_303315): 61.9 µM
- CC50 at 24 h [2]: 66.1 µM

SMILES: CC(C)(C)c1cc(C(C)(C)C)c(O)c(C(C)(C)C)c1 [2,4,6-Tris(tert-butyl)phenol]
- CC50 ([1]; Tox21_110001=Tox21_300121): 28.2 µM
- CC50 at 24 h [2]: 27.4 µM

SMILES: CO[C@H]1/C=C/O[C@@]2(C)Oc3c(C)c(O)c4c(O)c(c(/C=N/N5CCN(C)CC5)c(O)c4c3C2=O)NC(=O)/C(C)=C\C=C\[C@H](C)[C@H](O)[C@@H](C)[C@@H](O)[C@@H](C)[C@H](OC(C)=O)[C@@H]1C [Rifampicin]
- CC50 ([1]; Tox21_110001=Tox21_111329): 24.2 µM
- CC50 ([1]; Tox21_110001=Tox21_300550): 32.4 µM
- CC50 at 24 h [2]: 29.8 µM

SMILES: Cc1cc(O)c2c(c1)C(=O)c1cc(O)cc(O)c1C2=O [Emodin]
- CC50 ([1]; Tox21_110001=Tox21_303218): 34.9 µM
- CC50 at 24 h [2]: 29.1 µM

SMILES: CCCCC(CC)COC(=O)c1ccc(O)cc1 (stereo not shown) [2-Ethylhexylparaben]
- CC50 ([1]; Tox21_110001=Tox21_302793): 41.7 µM
- CC50 at 24 h [2]: 32.1 µM

SMILES: Cc1ccc(S(=O)(=O)Oc2ccc(N=Nc3ccc(-c4ccc(N=Nc5c(O)ccc6cc(S(=O)(=O)O)cc(S(=O)(=O)O)c56)c(C)c4)cc3C)cc2)cc1 [C.I. Acid Red 114]
- CC50 ([1]; Tox21_110001=Tox21_302977): 17.5 µM
- CC50 at 24 h [2]: 32.3 µM

SMILES: Clc1ccc(C(c2ccc(Cl)cc2)C(Cl)Cl)cc1 [p,p'-DDD]
- CC50 ([1]; Tox21_110001=Tox21_300191): 35.5 µM
- CC50 at 24 h [2]: 27.9 µM

SMILES: CC(=O)[C@]1(O)Cc2c(O)c3c(c(O)c2[C@@H](O[C@H]2C[C@H](N)[C@H](O)[C@H](C)O2)C1)C(=O)c1c(O)cccc1C3=O [Carminomycin]
- CC50 ([1]; Tox21_110001=Tox21_111978): 0.212 µM
- CC50 at 24 h [2]: 0.177 µM

SMILES: O=[N+]([O-])c1ccc(Cl)c([N+](=O)[O-])c1 [1-Chloro-2,4-dinitrobenzene]
- CC50 ([1]; Tox21_110001=Tox21_302802): 10.1 µM
- CC50 at 24 h [2]: 12.5 µM

SMILES: O=C1c2ccccc2C(=O)N1SC(Cl)(Cl)Cl [Folpet]
- CC50 ([1]; Tox21_110001=Tox21_301077): 2.3 µM
- CC50 at 24 h [2]: 4.47 µM

SMILES: Cc1ccc(O)c(C(C)(C)C)c1 [2-tert-Butyl-4-methylphenol]
- CC50 ([1]; Tox21_110001=Tox21_303003): 69.9 µM
- CC50 at 24 h [2]: 89.6 µM

SMILES: Cc1cc(Cc2cc(C)cc(C(C)(C)C)c2O)c(O)c(C(C)(C)C)c1 [2,2'-Methylenebis(4-methyl-6-tert-butylphenol)]
- CC50 ([1]; Tox21_110001=Tox21_302923): 10.1 µM
- CC50 at 24 h [2]: 11.5 µM

SMILES: Oc1ccc(Cl)cc1Sc1cc(Cl)ccc1O [Fenticlor]
- CC50 ([1]; Tox21_110001=Tox21_110031): 11.6 µM
- CC50 at 24 h [2]: 8.49 µM

SMILES: Nc1cc([N+](=O)[O-])ccc1O [2-Amino-4-nitrophenol]
- CC50 ([1]; Tox21_110001=Tox21_302788): 48.2 µM
- CC50 at 24 h [2]: 62.3 µM

SMILES: Cc1cc(N=Nc2ccccc2C)ccc1N [2-Amino-5-azotoluene]
- CC50 ([1]; Tox21_110001=Tox21_300300): 40.4 µM
- CC50 at 24 h [2]: 50.9 µM

SMILES: CCc1cc(C(C)(C)C)c(O)c(C(C)(C)C)c1 [2,6-Di-tert-butyl-4-ethylphenol]
- CC50 ([1]; Tox21_110001=Tox21_303397): 85.5 µM
- CC50 at 24 h [2]: 72.5 µM

SMILES: CCN(CC)CCOc1ccc(C(=C(Cl)c2ccccc2)c2ccccc2)cc1 [Clomiphene]
- CC50 ([1]; Tox21_110001=Tox21_113110): 7.27 µM
- CC50 at 24 h [2]: 6.61 µM

SMILES: CCCCCCCCCCCCCC[P+](CCCC)(CCCC)CCCC [Tributyltetradecylphosphonium chloride]
- CC50 ([1]; Tox21_110001=Tox21_303556): 3.3 µM
- CC50 at 24 h [2]: 2.96 µM

SMILES: CC(=O)[C@H]1CC[C@H]2[C@@H]3CCC4=CC(=O)CC[C@]4(C)[C@H]3CC[C@]12C [Progesterone]
- CC50 ([1]; Tox21_110001=Tox21_300307): 81.7 µM
- CC50 at 24 h [2]: 85.9 µM

SMILES: O=c1cc(-c2ccc(O)cc2)oc2cc(O)cc(O)c12 [Apigenin]
- CC50 ([1]; Tox21_110001=Tox21_302884): 77.9 µM
- CC50 at 24 h [2]: 42.3 µM

SMILES: O=S(=O)(O)c1cc(S(=O)(=O)O)c2c(N=Nc3ccccc3)c(O)ccc2c1 [C.I. Acid Orange 10]
- CC50 ([1]; Tox21_110001=Tox21_303019): 48.6 µM
- CC50 at 24 h [2]: 46.4 µM

SMILES: CCCN(CCOc1c(Cl)cc(Cl)cc1Cl)C(=O)n1ccnc1 [Prochloraz]
- CC50 ([1]; Tox21_110001=Tox21_301179): 70.8 µM
- CC50 at 24 h [2]: 81.4 µM

SMILES: ClC1=C(Cl)C(Cl)(Cl)C(Cl)=C1Cl [Hexachlorocyclopentadiene]
- CC50 ([1]; Tox21_110001=Tox21_302780): 58 µM
- CC50 at 24 h [2]: > 90 µM

SMILES: O=S(=O)(O)c1ccc(N=Nc2c(O)ccc3cc(S(=O)(=O)O)ccc23)cc1 [FD&C Yellow 6]
- CC50 ([1]; Tox21_110001=Tox21_300407): 65.1 µM
- CC50 at 24 h [2]: 38.5 µM

SMILES: Nc1ccc(N)cc1 [1,4-Benzenediamine]
- CC50 ([1]; Tox21_110001=Tox21_302943): 68.9 µM
- CC50 at 24 h [2]: 68.8 µM

SMILES: Clc1ccc(C(c2ccccc2Cl)C(Cl)Cl)cc1 (stereo not shown) [o,p'-DDD]
- CC50 ([1]; Tox21_110001=Tox21_110103): 41.9 µM
- CC50 at 24 h [2]: 56.7 µM

SMILES: Oc1c(Cl)c(Cl)c(Cl)c(Cl)c1Cl [Pentachlorophenol]
- CC50 ([1]; Tox21_110001=Tox21_300023): 29.7 µM
- CC50 at 24 h [2]: 34.5 µM
